Type in all cases: biochemical
One test deals with T1, KDR (Homo sapiens, UniProt P35968).
T1 construct: purchased BPS Bioscience, CA, USA
In words: KDR enzymatic assay (Caliper LifeSciences technology). As to the method:
(§1) Enzymatic Assays Using the Caliper LifeSciences Technology
(§2) The assays described here are performed on the Caliper Life Sciences LC3000 system This technology provides data on enzyme activity via measurement of the relative amounts of phosphorylated or unphosphorylated fluorescently labelled substrate peptide at the end of an enzymatic reaction. These different states of peptide are resolved by applying a potential difference across the sample. The presence of the charged phosphate group on the product (as opposed to the substrate) causes a different peptide mobility between the two peptides. This is visualized by excitation of the fluorescent label on the substrate and product peptides and represented as peaks within the analysis software.
(§3) In order to measure inhibitor activity of kinase inhibitors on this technology, a TTP Mosquito liquid handling instrument is used to place 0.25 ul of the appropriate concentration of inhibitor in 100% DMSO (for a dose response curve calculation) into each well of a 384-well plate. To this reaction components are added to a final volume of 25 ul. The table below indicates the sequences and concentrations for the assays described in this report. Standard components are 1 mM DTT (Sigma, D0632), 1 mM MgCl2 (Sigma, M1028), 100 mM HEPES pH 7.5 (Calbiochem, 391338), 0.015% Brij-35 (Sigma, B4184).
(§4) The reaction is incubated for 90 min at 25 C, and then stopped by the addition of 70 ul of Stop buffer (100 mM HEPES pH 7.5, 0.015% Brij-35, 10 mM EDTA (Sigma, E7889)).
(§5) The plate is read on a Caliper LC 3000 in an Off-Chip mobility shift assay format, on a 12-sipper chip. Unphosphorylated substrate and phosphorylated product peptide resolve as separate peaks allowing direct measurement of percentage of conversion of substrate to product. The percent conversion can be plotted against concentration of inhibitor to produce a sigmoidal dose response curve, from which an IC50 can be calculated using GeneData Condoseo or a similar product. Cellular activity assays

Another test has as its target T2, ZAP-70 (Homo sapiens, UniProt P43403).
T2 construct: purchased BPS Bioscience, CA, USA
T2 sequence (P43403 1-619): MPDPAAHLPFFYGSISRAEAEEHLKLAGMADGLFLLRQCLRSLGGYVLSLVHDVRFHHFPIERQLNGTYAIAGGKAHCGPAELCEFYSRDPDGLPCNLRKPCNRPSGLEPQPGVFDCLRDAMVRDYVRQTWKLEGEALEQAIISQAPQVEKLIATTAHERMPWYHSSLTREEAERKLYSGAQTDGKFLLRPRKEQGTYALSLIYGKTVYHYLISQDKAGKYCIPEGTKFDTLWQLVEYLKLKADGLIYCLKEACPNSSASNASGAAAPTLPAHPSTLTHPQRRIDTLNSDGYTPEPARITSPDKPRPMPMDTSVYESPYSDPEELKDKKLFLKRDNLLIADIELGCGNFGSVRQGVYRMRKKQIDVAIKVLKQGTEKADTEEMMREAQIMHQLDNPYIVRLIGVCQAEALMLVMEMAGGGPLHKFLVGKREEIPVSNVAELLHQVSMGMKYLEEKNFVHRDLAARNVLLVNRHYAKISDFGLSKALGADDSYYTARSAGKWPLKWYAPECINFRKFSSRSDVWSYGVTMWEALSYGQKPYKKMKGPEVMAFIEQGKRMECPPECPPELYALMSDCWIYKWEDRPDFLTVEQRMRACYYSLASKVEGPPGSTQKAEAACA
In words: Zap70 enzymatic assay (Caliper LifeSciences technology). As to the method:
as §1, §2, §3, §4, §5

A further test concerns the target T3, Syk (Homo sapiens, UniProt P43405).
T3 construct: purchased BPS Bioscience, CA, USA
In words: Syk enzyme assay (flash plate / Caliper mobility shift). As to the method: The kinase assay is performed either as 384-well Flashplate assay (for e.g. Topcount measurement) or as 384-well Image-Flashplate assay (for LEADseeker measurement).
2.5 nM SYK, 400 nM Biotin-Aha-Aha-[…] and 10 μM ATP (spiked with 0.3 μCi 33P-ATP/well) are incubated in a total volume of 50 μl (60 mM Hepes, 10 mM MgCl2, 1.2 mM Dithiothreitol, 0.02% Brij35, 0.1% BSA, pH 7.5) with or without test compound for 1 hours at 30° C. The reaction is stopped with 25 μl 200 mM EDTA. After 30 Min at 30° C. the liquid is removed and each well washed thrice with 100 μl 0.9% sodium chloride solution. Non-specific reaction is determined in presence of 0.1 μM Staurosporine. Radioactivity is measured with Topcount (when using Flashplates) or with LEADseeker (when using Image-Flashplates) respectively. Results (e.g. IC50-values) are calculated with program tools provided by the IT-department (e.g. Symyx Assay Explorer, Genedata Screener).
as §1, §2, §3, §4, §5

A further test addresses T4, Src (Homo sapiens, UniProt P12931).
T4 construct: purchased Carna Bioscience, Kobe, Japan
The test is described as follows: cSrc enzymatic assay (Caliper LifeSciences technology). On the procedure: as §1, §2, §3, §4, §5

As usually defined, the IC50 is the concentration that inhibits the measured activity by half.

Bounds are passed on as bounds.

T1 sequence (P35968 20-1356): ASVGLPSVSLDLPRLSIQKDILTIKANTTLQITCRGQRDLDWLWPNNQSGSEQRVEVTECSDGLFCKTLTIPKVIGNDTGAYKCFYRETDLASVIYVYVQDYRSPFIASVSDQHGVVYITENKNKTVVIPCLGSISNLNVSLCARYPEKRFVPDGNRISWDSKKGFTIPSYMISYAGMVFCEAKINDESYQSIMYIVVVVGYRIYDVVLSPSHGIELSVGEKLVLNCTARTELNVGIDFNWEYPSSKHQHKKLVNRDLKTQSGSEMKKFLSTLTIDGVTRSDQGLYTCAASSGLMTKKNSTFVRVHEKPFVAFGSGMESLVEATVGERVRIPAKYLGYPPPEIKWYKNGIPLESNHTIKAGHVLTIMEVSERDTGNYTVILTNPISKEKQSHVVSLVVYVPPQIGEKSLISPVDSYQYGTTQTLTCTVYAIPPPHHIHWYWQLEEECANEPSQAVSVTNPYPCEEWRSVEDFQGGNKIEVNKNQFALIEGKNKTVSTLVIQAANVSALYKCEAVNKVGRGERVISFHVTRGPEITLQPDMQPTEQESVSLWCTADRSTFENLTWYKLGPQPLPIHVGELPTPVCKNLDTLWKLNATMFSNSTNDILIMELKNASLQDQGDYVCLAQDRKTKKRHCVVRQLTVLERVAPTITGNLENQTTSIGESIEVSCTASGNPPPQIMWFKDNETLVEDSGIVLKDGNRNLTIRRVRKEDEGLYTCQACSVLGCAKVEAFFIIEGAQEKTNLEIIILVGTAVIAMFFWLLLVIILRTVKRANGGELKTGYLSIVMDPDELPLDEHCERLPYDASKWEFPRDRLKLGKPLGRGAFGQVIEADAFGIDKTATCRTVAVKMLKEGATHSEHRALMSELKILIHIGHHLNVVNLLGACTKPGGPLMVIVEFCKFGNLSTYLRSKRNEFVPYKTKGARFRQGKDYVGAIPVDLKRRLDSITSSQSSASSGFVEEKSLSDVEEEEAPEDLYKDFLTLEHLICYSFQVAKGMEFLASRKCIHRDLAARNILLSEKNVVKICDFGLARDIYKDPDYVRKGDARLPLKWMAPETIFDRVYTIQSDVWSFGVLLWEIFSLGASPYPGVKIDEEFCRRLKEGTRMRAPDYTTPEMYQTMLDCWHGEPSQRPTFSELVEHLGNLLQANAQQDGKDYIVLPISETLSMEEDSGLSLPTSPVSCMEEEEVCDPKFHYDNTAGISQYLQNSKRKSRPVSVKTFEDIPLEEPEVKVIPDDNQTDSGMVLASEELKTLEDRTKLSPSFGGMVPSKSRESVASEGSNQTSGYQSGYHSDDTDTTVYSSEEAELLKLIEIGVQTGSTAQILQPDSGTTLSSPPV
T4 sequence (P12931 whole entry): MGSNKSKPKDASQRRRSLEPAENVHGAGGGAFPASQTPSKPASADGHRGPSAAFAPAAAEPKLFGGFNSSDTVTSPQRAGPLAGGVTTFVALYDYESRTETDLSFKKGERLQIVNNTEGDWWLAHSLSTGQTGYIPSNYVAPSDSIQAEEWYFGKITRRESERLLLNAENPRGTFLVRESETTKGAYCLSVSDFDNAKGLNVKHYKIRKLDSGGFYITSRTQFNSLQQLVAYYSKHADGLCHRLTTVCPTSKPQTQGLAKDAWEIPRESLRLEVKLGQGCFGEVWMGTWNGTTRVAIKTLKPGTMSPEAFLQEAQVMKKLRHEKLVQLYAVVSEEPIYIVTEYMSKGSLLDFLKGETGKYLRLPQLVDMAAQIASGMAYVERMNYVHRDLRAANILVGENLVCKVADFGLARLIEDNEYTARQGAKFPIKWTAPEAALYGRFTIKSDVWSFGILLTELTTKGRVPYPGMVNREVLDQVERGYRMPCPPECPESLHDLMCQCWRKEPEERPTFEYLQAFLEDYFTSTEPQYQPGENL

`Cc1cc(C)cc(Nc2nc3c(Cl)nccn3n2)c1` [Example B1, 8-Chloro-[1,2, 4]triazolo[1,5-a]pyrazin-2-yl-(3,5-dimethyl-phenyl)-amine]: the IC50 was 3 to 50 µM against KDR, 0.3 to 3 µM against ZAP-70 and 3 to 50 µM on Syk.
Consider `COc1cc(Nc2nc3c(Cl)nccn3n2)cc(OC)c1` [Example B2, 8-Chloro-[1,2,4]triazolo[1,5-a]pyrazin-2-yl-(3,5-dimethoxy-phenyl)-amine], for which the IC50 on Src and at Syk was 3 to 50 µM in each case.
Regarding `Cc1cccc(Nc2nc3c(-c4ccccc4)nccn3n2)c1` [Example C1, (8-Phenyl-[1,2,4]triazolo[1,5-a]pyrazin-2-yl)-m-tolyl-amine], the IC50 on KDR is below 0.3 µM; against ZAP-70, 3 to 50 µM; at Syk, 0.3 to 3 µM.
On to `Cc1cc(C)cc(Nc2nc3c(-c4cccnc4)nccn3n2)c1` [Example C4, (3,5-Dimethyl-phenyl)-(8-pyridin-3-yl-[1,2,4]triazolo[1,5-a]pyrazin-2-yl)-amine], for which the half-inhibitory concentration (IC50) against KDR, against Src and on Syk was 0.3 to 3 µM throughout.
`Cc1cc(C)cc(Nc2nc3c(-c4ccc(N5CCOCC5)cc4)nccn3n2)c1` [Example C11, (3,5-Dimethyl-phenyl)-[8-(4-morpholin-4-yl-phenyl)-[1,2,4]triazolo[1,5-a]pyrazin-2-yl]-amine]: the IC50 at KDR, against Src and at Syk was 3 to 50 µM throughout.
On to `FC(F)(F)c1cccc(Nc2nc3c(-c4cccnc4)nccn3n2)c1` [Example C20, (8-Pyridin-3-yl-[1,2,4]triazolo[1,5-a]pyrazin-2-yl)-(3-trifluoromethyl-phenyl)-amine], for which the IC50 lay in the range of 3 to 50 µM at KDR, 3 to 50 µM against Src and 0.3 to 3 µM on Syk.
Regarding `Cc1cccc(Nc2nc3c(-c4cccnc4)nccn3n2)c1` [Example C21, (8-Pyridin-3-yl-[1,2,4]triazolo[1,5-a]pyrazin-2-yl)-m-tolyl-amine], the IC50 against KDR fell in the range of 0.3 to 3 µM; against ZAP-70, 3 to 50 µM; on Syk, 0.3 to 3 µM.
For `c1ccc(Nc2nc3c(-c4cccnc4)nccn3n2)cc1` [Example C22, Phenyl-(8-pyridin-3-yl-[1,2,4]triazolo[1,5-a]pyrazin-2-yl)-amine], the values for the IC50 on KDR, against Src and on Syk were 0.3 to 3 µM, 3 to 50 µM and 3 to 50 µM, respectively.
For `COc1cc(OC)cc(-c2nccn3nc(Nc4ccc(Sc5nccn5C)c(Cl)c4)nc23)c1` [Example C25, [3-Chloro-4-(1-methyl-1H-imidazol-2-ylsulfanyl)-phenyl]-[8-(3,5-dimethoxy-phenyl)-[1,2,4]triazolo[1,5-a]pyrazin-2-yl]-amine], the 50% inhibitory concentration (IC50) at KDR, against ZAP-70 and on Syk was 3 to 50 µM each time.
Regarding `Cc1cc(C)cc(Nc2nc3c(NCCCN4CCOCC4)nccn3n2)c1` [Example C28, N^2-(3,5-Dimethyl-phenyl)-N^8-(3-morpholin-4-yl-propyl)-[1,2,4]triazolo[1,5-a]pyrazine-2,8-diamine], the IC50 against KDR lay within 0.3 to 3 µM; against Src it was 3 to 50 µM; on Syk it was 3 to 50 µM.
With `COc1cc(Nc2nc3c(NCCN)nccn3n2)cc(OC)c1` [Example C29, N^8-(2-Amino-ethyl)-N^2-(3,5-dimethoxy-phenyl)-[1,2,4]triazolo[1,5-a]pyrazine-2,8-diamine], the IC50 against KDR, on Src and on Syk was 3 to 50 µM in each case.
For `COc1cc(Nc2nc3c(NCCCN4CCN(C)CC4)nccn3n2)cc(OC)c1` [Example C30, N^2-(3,5-Dimethoxy-phenyl)-N^8-[3-(4-methyl-piperazin-1-yl)-propyl]-[1,2,4]triazolo[1,5-a]pyrazine-2,8-diamine], the 50% inhibitory concentration (IC50) against KDR, against Src and at Syk was 3 to 50 µM in each case.
`CN(C)CCCNc1nccn2nc(Nc3cccc(C(F)(F)F)c3)nc12` [Example C33, N^8-(3-Dimethylamino-propyl)-N^2-(3-trifluoromethyl-phenyl)-[1,2,4]triazolo[1,5-a]pyrazine-2,8-diamine]: the IC50 on KDR, on Src and on Syk was 3 to 50 µM throughout.
Take `COc1cc(Nc2nc3c(NCCCN(C)C)nccn3n2)cc(OC)c1` [Example C38, N^2-(3,5-Dimethoxy-phenyl)-N^8-(3-dimethylamino-propyl)-[1,2,4]triazolo[1,5-a]pyrazine-2,8-diamine]: the half-inhibitory concentration (IC50) against KDR, against Src and on Syk was 3 to 50 µM in each case.
For the compound `COc1cc(Nc2nc3c(NCCCN4CCOCC4)nccn3n2)cc(OC)c1` [Example C39, N^2-(3,5-Dimethoxy-phenyl)-N^8-(3-morpholin-4-yl-propyl)-[1,2,4]triazolo[1,5-a]pyrazine-2,8-diamine], the IC50 on KDR, at Src and on Syk was 3 to 50 µM in each case.
Turning to `COCCCNc1nccn2nc(Nc3cc(OC)cc(OC)c3)nc12` [Example C40, N^2-(3,5-Dimethoxy-phenyl)-N^8-(3-methoxy-propyl)-[1,2,4]triazolo[1,5-a]pyrazine-2,8-diamine], the IC50 against KDR, against Src and on Syk was 3 to 50 µM throughout.
Regarding `NCCNc1nccn2nc(Nc3cccc(C(F)(F)F)c3)nc12` [Example C41, N^8-(2-Amino-ethyl)-N^2-(3-trifluoromethyl-phenyl)-[1,2,4]triazolo[1,5-a]pyrazine-2,8-diamine], the IC50 on KDR, against ZAP-70 and at Syk was 3 to 50 µM each time.
`Cc1cccc(Nc2nc3c(NCCCN(C)C)nccn3n2)c1` [Example C46, N^8-(3-Dimethylamino-propyl)-N^2-m-tolyl-[1,2,4]triazolo[1,5-a]pyrazine-2,8-diamine]: the IC50 against KDR, on Src and at Syk was 3 to 50 µM each time.
Take `CN(C)CCCNc1nccn2nc(Nc3ccccc3)nc12` [Example C50, N^8-(3-Dimethylamino-propyl)-N^2-phenyl-[1,2,4]triazolo[1,5-a]pyrazine-2,8-diamine]: the IC50 at KDR, against ZAP-70 and at Syk was 3 to 50 µM each time.
As for `CN1CCN(CCCNc2nccn3nc(Nc4ccccc4)nc23)CC1` [Example C52, N^8-[3-(4-Methyl-piperazin-1-yl)-propyl]-N^2-phenyl-[1,2,4]triazolo[1,5-a]pyrazine-2,8-diamine], the IC50 on KDR and on ZAP-70 was 3 to 50 µM in each case.
With `COc1cc(Nc2nc3c(-c4cccc(CN)c4)nccn3n2)cc(OC)c1` [Example C114, [8-(3-Aminomethyl-phenyl)-[1,2,4]triazolo[1,5-a]pyrazin-2-yl]-(3,5-dimethoxy-phenyl)-amine], the IC50 against KDR was 0.3 to 3 µM; against Src it was 0.3 to 3 µM; on Syk, below 0.3 µM.

The values are drawn from US9023851B2 (Merck Patent GmbH, priority 2010, dated 2015).
